We go through 21 compounds from patent US9045442B2, “Antibacterial compounds and methods of using same” (University of Notre Dame du Lac, priority 2007, dated 2015).

Molecules are shown by their SMILES.

Assay [1] relates to S. aureus NRS100 (COL). In words: minimum inhibitory concentration (MIC) against S. aureus NRS100 (COL). In kind it is cell-based, Staphylococcus aureus. The text has this:
(§1) In embodiments, the antibacterials of this invention may have useful activity against a variety of organisms. The in vitro activity of compounds of this invention may be assessed by standard testing procedures such as the determination of minimum inhibitory concentration (MIC) by agar dilution.
(§2) Compound A was broken down into smaller structural components and each fraction tested to understand the impact of certain components on the antibacterial properties of the compounds. Based on the understanding of compound A, the compounds (compounds 1 and 2) shown below, were tested further. […] A minimum inhibitory concentration is the lowest concentration of an antimicrobial that will inhibit the visible growth of a microorganism after overnight incubation.
(§3) In accordance with embodiments of the present invention, a variety of compounds have been prepared and tested, as indicated, in part, by the description above. The tables below provide minimum inhibitory concentration data for the identified compounds tested against various bacterial strains.

Assay [2] relates to E. faecalis 99. In words: minimum inhibitory concentration (MIC) against E. faecalis 99. In kind it is cell-based.
From the text: as §1, §2, §3
(§4) Table 1 lists the active compounds and the activity of those compounds for a limited quantity of bacteria. Blank spaces indicate low or no activity.

For assay [3], the system named is E. faecalis 29212. In words: minimum inhibitory concentration (MIC) against E. faecalis 29212. Also noted: minimum inhibitory concentration, E. faecalis 29212: unit not given here. The assay is classed as cell-based.
From the text: as §1, §2, §3, §4

In assay [4] the test system is E. faecium 106. The assay is described as follows: minimum inhibitory concentration (MIC) against E. faecium 106. In kind it is cell-based.
From the text: as §1, §2, §3

Assay [5] relates to S. aureus VAN2. In words: minimum inhibitory concentration (MIC) against S. aureus VAN2. The assay is classed as cell-based, Staphylococcus aureus.
From the text: as §1, §2, §3

For assay [6], the system named is E. faecium 119-39A. In words: minimum inhibitory concentration (MIC) against E. faecium 119-39A. The assay is classed as cell-based.
From the text: as §1, §2, §3

The test system of assay [7] is strains of Entercoccus. The assay is described as follows: activity (minimum inhibitory concentration testing) against strains of Entercoccus. The assay is classed as cell-based. Conditions: result in words; for activity as measured by minimum inhibitory concentration testing against several strains of Entercoccus: FIG. 1. How it is done: (§5) In an embodiment, an initial antibacterial compound was provided and tested. Such compound is identified below as compound A. Compound A (below) is an inhibitor of gram positive bacteria.
as §2

In assay [8] the test system is S. aureus VAN1. In words: minimum inhibitory concentration (MIC) against S. aureus VAN1. In kind it is cell-based, Staphylococcus aureus.
From the text: as §1, §2, §3

In assay [9] the test system is E. faecal 201. In words: minimum inhibitory concentration (MIC) against E. faecal 201. In kind it is cell-based, E. faecalis.
From the text: as §1, §2, §3, §4

Assay [10] deals with S. aureus ATCC 29213. The assay is described as follows: minimum inhibitory concentration (MIC) against S. aureus ATCC 29213. The assay is classed as cell-based, Staphylococcus aureus.
From the text: as §1, §2, §3, §4

In assay [11] the test system is several strains of Staphylococcus aureus. In words: activity (minimum inhibitory concentration testing) against several strains of Staphylococcus aureus. The assay is classed as cell-based. Conditions: FIG. 1, result in words. How it is done: as §2
Assay [12] concerns gram positive bacteria. In words: inhibition of gram positive bacteria. To be noted: result in words. The assay is classed as cell-based.
From the text: as §5

For the compound `Oc1ccc(-c2nc(-c3ccc(Oc4ccc(C(F)(F)F)cc4)cc3)no2)cc1` [Compound 1, 4-(3-(4-(4-(trifluoromethyl)phenoxy)phenyl)-1,2,4-oxadiazol-5-yl)phenol], in [1], the “minimum inhibitory concentration, S. aureus NRS100 (COL)” value is 2. In [2], the “minimum inhibitory concentration, E. faecal 99 BH” value is recorded as 8 and the “minimum inhibitory concentration, E. faecalis 99” value worked out at 2. Moreover, in [3], the “minimum inhibitory concentration, E. faecalis 29212” value was found to be 2 and the “minimum inhibitory concentration, E. faecalis 29212 BH” value worked out at 16. Also, the “minimum inhibitory concentration, E. faecium 106” value in [4] was 2. The “minimum inhibitory concentration, E. faecium 106 BH” value in assay [4] (E. faecium 106 BH) was determined as 4. Also, in assay [5], the “minimum inhibitory concentration, S. aureus VAN2” value stood at 2. The “minimum inhibitory concentration, E. faecium 119-39A” value in assay [6] is 2. Besides, the “minimum inhibitory concentration, E. faecium 119-39A BH” value in assay [6] (E. faecium 119-39A BH) came out at 8. Also, the “activity as measured by minimum inhibitory concentration testing against several strains of Entercoccus” value in assay [7] is reported as “good activity”. In addition, in assay [8], the “minimum inhibitory concentration, S. aureus VAN1” value is recorded as 2. Moreover, in [9], the “minimum inhibitory concentration, E. faecal 201” value is on record as 2 and the “minimum inhibitory concentration, E. faecal 201 BH” value is 16. Moreover, the “minimum inhibitory concentration, S. aureus ATCC 29213” value in assay [10] was 2. Also, the “activity as measured by minimum inhibitory concentration testing against several strains of Staphylococcus aureus” value in assay [11] is “good activity”.
Take `N/C(=N\OC(=O)c1ccc(F)cc1)c1ccc(Oc2ccccc2)cc1` [Compound 29, (Z)-4-(phenoxy)-O-(4-fluorobenzoyl)benzamidoxime]: in assay [3], the “minimum inhibitory concentration, E. faecalis 29212” value amounted to 64. Further, in assay [9], the “minimum inhibitory concentration, E. faecal 201” value came to 128.
Consider `CC(=O)O/N=C(\N)c1ccc(Oc2ccc(C(F)(F)F)cc2)cc1` [Compound 7], for which the “minimum inhibitory concentration, E. faecal 99 BH” value in assay [2] is 512. Besides, the “minimum inhibitory concentration, E. faecalis 29212” value in assay [3] is 32. In addition, the “minimum inhibitory concentration, E. faecal 201” value in [9] came out at 128.
`c1ccc(COc2ccc(-c3nc(-c4ccc(Oc5cnccn5)cc4)no3)cc2)cc1` [Compound 40, 2-(4-(5-(4-(benzyloxy)phenyl)-1,2,4-oxadiazol-3-yl)phenoxy)pyrazine]: in assay [9], the “minimum inhibitory concentration, E. faecal 201” value came out at 64.
Turning to `Oc1ccc(-c2nc(-c3ccc(Oc4cccnc4)cc3)no2)cc1` [Compound 48, 4-(3-(4-(pyridin-3-yloxy)phenyl)-1,2,4-oxadiazol-5-yl)phenol], in [9], the “minimum inhibitory concentration, E. faecal 201” value was found to be 32.
Take `COc1ccc(-c2noc(-c3ccc(O)cc3)n2)cc1` [Compound 28, 4-(3-(4-methoxyphenyl)-1,2,4-oxadiazol-5-yl)phenol]: the “minimum inhibitory concentration, E. faecal 201” value in assay [9] turned out to be 64. Besides, the “minimum inhibitory concentration, S. aureus ATCC 29213” value in [10] was 32.
For `c1ccc(COc2ccc(-c3nc(-c4ccc(Oc5ccncc5)cc4)no3)cc2)cc1` [Compound 51, 4-(4-(5-(4-(benzyloxy)phenyl)-1,2,4-oxadiazol-3-yl)phenoxy)pyridine], the “minimum inhibitory concentration, E. faecal 201” value in assay [9] amounted to 64.
As for `O=[N+]([O-])c1ccc(-c2nc(-c3ccc(Oc4ccc(C(F)(F)F)cc4)cc3)no2)cc1` [Compound 15], in [3], the “minimum inhibitory concentration, E. faecalis 29212” value stood at 8. Moreover, the “minimum inhibitory concentration, E. faecal 201” value in assay [9] was 128.
In the case of `O=P(O)(O)Oc1ccc(Oc2ccc(-c3noc(-c4ccc(F)cc4)n3)cc2)cc1` [Compound 37, 4-(4-(5-(4-fluorophenyl)-1,2,4-oxadiazol-3-yl)phenoxy)phenyl dihydrogen phosphate], the “minimum inhibitory concentration, E. faecal 99 BH” value in [2] is on record as 500. Also, in assay [3], the “minimum inhibitory concentration, E. faecalis 29212” value is listed as 500 and the “minimum inhibitory concentration, E. faecalis 29212 BH” value turned out to be 128. Further, in [9], the “minimum inhibitory concentration, E. faecal 201” value worked out at 32 and the “minimum inhibitory concentration, E. faecal 201 BH” value is given as 500.
With `Oc1ccc(-c2nc(-c3ccc(Oc4ccncc4)cc3)no2)cc1` [Compound 52, 4-(3-(4-(pyridin-4-yloxy)phenyl)-1,2,4-oxadiazol-5-yl)phenol], the “minimum inhibitory concentration, E. faecal 201” value in assay [9] is 32.
`Oc1ccc(Oc2ccc(-c3noc(-c4ccc(F)cc4)n3)cc2)cc1` [Compound 36, 4-(4-(5-(4-fluorophenyl)-1,2,4-oxadiazol-3-yl)phenoxy)phenol]: the “minimum inhibitory concentration, E. faecalis 29212” value in [3] amounted to 64. Besides, the “minimum inhibitory concentration, E. faecal 201” value in assay [9] stood at 32.
For `COc1ccc(-c2noc(-c3ccc(F)cc3)n2)cc1` [Compound 26, 5-(4-fluorophenyl)-3-(4-methoxyphenyl)-1,2,4-oxadiazole], in that order: 64 and 128.
With `c1ccc(COc2ccc(-c3nc(-c4ccc(Oc5cccnc5)cc4)no3)cc2)cc1` [Compound 47, 3-(4-(5-(4-(benzyloxy)phenyl)-1,2,4-oxadiazol-3-yl)phenoxy)pyridine], in [9], the “minimum inhibitory concentration, E. faecal 201” value is reported as 32.
As for `Oc1ccc(-c2nc(-c3ccc(Oc4ccccn4)cc3)no2)cc1` [Compound 44, 4-(3-(4-(pyridin-2-yloxy)phenyl)-1,2,4-oxadiazol-5-yl)phenol], in [9], the “minimum inhibitory concentration, E. faecal 201” value turned out to be 32.
Consider `c1ccc(COc2ccc(-c3nc(-c4ccc(Oc5ccccn5)cc4)no3)cc2)cc1` [Compound 43, 2-(4-(5-(4-(benzyloxy)phenyl)-1,2,4-oxadiazol-3-yl)phenoxy)pyridine], for which, in [9], the “minimum inhibitory concentration, E. faecal 201” value worked out at 64.
Regarding `N/C(=N\OC(=O)c1ccc([N+](=O)[O-])cc1)c1ccc(Oc2ccc(C(F)(F)F)cc2)cc1` [Compound 14, (Z)-4-(4-(trifluoromethyl)phenoxy)-O-(4-nitrobenzoyl)benzamidoxime], the “minimum inhibitory concentration, E. faecalis 29212” value in assay [3] was 128. In assay [9], the “minimum inhibitory concentration, E. faecal 201” value is on record as 32.
Turning to `Fc1ccc(-c2nc(-c3ccc(Oc4ccc(C(F)(F)F)cc4)cc3)no2)cc1` [Compound A, 5-(4-fluorophenyl)-3-(4-(4-(trifluoromethyl)phenoxy)phenyl)-1,2,4-oxadiazole], the “minimum inhibitory concentration, E. faecalis 29212” value in assay [3] came out at 125. Further, the “activity against some strains of Entercoccus” value in assay [7] (some strains of Entercoccus) is reported as “shows activity”. The “inhibition of gram positive bacteria” value in [12] is on record as “inhibitor”. Also, in assay [9], the “minimum inhibitory concentration, E. faecal 201” value amounted to 128.
As to `Fc1ccc(-c2nc(-c3ccccc3)no2)cc1` [Compound 19, 5-(4-fluorophenyl)-3-phenyl-1,2,4-oxadiazole], in assay [3], the “minimum inhibitory concentration, E. faecalis 29212” value is given as 64. The “minimum inhibitory concentration, E. faecal 201” value in [9] is on record as 128.
With `COc1ccc(-c2noc(-c3ccc(OCc4ccccc4)cc3)n2)cc1` [Compound 27, 5-(4-(benzyloxy)phenyl)-3-(4-methoxyphenyl)-1,2,4-oxadiazole], in assay [9], the “minimum inhibitory concentration, E. faecal 201” value stood at 256.
For the compound `COc1ccc(/C(N)=N/OC(=O)c2ccc(F)cc2)cc1` [Compound 25, 4-fluorobenzoyl-O-4-methoxybenzamidoxime], the “minimum inhibitory concentration, E. faecalis 29212” value in assay [3] was 256. Moreover, the “minimum inhibitory concentration, E. faecal 201” value in assay [9] worked out at 256.
With `Oc1ccc(-c2nc(-c3ccc(Oc4ccccc4)cc3)no2)cc1` [Compound 2, 4-(3-(4-phenoxyphenyl)-1,2,4-oxadiazol-5-yl)phenol], the “minimum inhibitory concentration, S. aureus NRS100 (COL)” value in assay [1] came out at 2. The “minimum inhibitory concentration, E. faecalis 99” value in [2] is reported as 4. The “minimum inhibitory concentration, E. faecalis 29212” value in [3] is 4. For the same compound, the “minimum inhibitory concentration, E. faecium 106” value in assay [4] came to 4. For the same compound, in assay [5], the “minimum inhibitory concentration, S. aureus VAN2” value was found to be 2. The “minimum inhibitory concentration, E. faecium 119-39A” value in assay [6] was 4. Besides, the “activity as measured by minimum inhibitory concentration testing against several strains of Entercoccus” value in assay [7] was “good activity”. Also, in assay [8], the “minimum inhibitory concentration, S. aureus VAN1” value worked out at 2. Besides, the “minimum inhibitory concentration, E. faecal 201” value in assay [9] came out at 4. Moreover, the “minimum inhibitory concentration, S. aureus ATCC 29213” value in assay [10] was 2. Also, the “activity as measured by minimum inhibitory concentration testing against several strains of Staphylococcus aureus” value in [11] is on record as “good activity”.
